Data: patent US10828370B2, “Selectin and ICAM/VCAM peptide ligand conjugates” (Purdue Research Foundation, priority 2014, dated 2020)

Columns and labels:
[1] = tested on: Selectin (E-Selectin and S-Selectin); conditions: selectin-binding peptide, free sequence; literature reference; cited from earlier work
[2] = tested on: TNF-α stimulated endothelial cells (ECs); assay: Relative binding affinity of EC-SEAL conjugates to endothelial cells (Streptavidin-HRP absorbance); type: cell-based; conditions: 3 μM treatments

Substance | IC50 [1] [µM] | relative binding to endothelial cells vs single receptor-binding conjugates (FIG. 4) [2]
IDLMQAR | ~200 | –
IEL/DGE-10,10 (peptide 1 IELLQARGC; peptide 2 DGEATDGC) | – | greater binding
IELLQAR | ~200 | –
QITWAQLWNMMK | ~0.16 | –
